For 34 compounds, IC50 results are on record in patent publication US20240116933A1, “INDAZOLE AND PYRAZOLOPYRIDINE COMPOUNDS AS INHIBITORS OF NLRP3 INFLAMMASOME” (BioAge Labs, Inc., priority 2022, published 2024).

pIC50: −log10 of the molar value. A value given as a limit tells only on which side of the number the result lay.

In the assay the target is T1, NLRP3 inflammasome (Homo sapiens, UniProt Q96P20).
T1 construct: endogenous in cells; host or cells: THP-1 cells (PMA-differentiated, LPS-primed, nigericin-stimulated)
T1 sequence (Q96P20 whole entry): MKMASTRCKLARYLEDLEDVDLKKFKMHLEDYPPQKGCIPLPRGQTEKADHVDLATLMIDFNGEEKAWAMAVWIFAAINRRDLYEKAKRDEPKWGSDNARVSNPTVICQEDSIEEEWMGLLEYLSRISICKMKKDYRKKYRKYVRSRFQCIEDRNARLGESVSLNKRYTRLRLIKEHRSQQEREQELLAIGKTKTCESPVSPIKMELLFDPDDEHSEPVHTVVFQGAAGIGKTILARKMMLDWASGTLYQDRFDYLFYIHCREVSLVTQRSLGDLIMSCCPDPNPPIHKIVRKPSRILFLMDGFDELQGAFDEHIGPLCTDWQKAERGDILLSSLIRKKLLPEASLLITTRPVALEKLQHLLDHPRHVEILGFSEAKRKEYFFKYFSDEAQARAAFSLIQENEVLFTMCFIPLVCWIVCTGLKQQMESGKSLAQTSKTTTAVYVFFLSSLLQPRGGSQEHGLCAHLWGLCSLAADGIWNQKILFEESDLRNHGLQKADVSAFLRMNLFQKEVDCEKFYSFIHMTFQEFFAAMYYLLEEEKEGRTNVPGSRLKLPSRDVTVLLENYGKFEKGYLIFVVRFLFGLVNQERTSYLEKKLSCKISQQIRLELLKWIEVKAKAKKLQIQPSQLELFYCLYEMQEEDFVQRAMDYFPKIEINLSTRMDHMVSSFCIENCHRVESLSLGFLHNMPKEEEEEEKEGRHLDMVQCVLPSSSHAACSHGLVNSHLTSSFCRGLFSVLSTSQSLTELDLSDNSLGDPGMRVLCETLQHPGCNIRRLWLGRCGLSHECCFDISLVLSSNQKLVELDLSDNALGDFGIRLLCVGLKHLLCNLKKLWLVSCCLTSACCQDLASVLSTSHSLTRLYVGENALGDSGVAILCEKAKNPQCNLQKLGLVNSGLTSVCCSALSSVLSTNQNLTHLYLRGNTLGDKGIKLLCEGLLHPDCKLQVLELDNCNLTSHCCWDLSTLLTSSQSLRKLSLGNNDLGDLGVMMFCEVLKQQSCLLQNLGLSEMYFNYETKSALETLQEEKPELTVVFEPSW
Kind of assay: THP-1 Cell-Based NLRP3 Activation Assay. Conditions: THP-1 cells, PMA, 100 ng/mL LPS 3 hrs, 30 min pre-incubation with test compound, 10 μM nigericin 1 hr. As to the method:
THP-1 cells are cultured in complete media (CM) until they reach logarithmic growth and achieve a viability >90%. CM is composed of RPMI-1640 (+Glutamax)/10% fetal bovine serum/55 μM β-mercaptoethanol/pen/strep. Cells are spun down and resuspended to 1,000,000 cells/mL in CM containing either 20 nM or 500 nM PMA. 150,000 cells […] are then added to each well of a 96-well TC plate and incubated for either 24 hr or 3 hr, respectively, in a standard cell culture incubator (37° C.; 5% CO2). After this incubation, the plate is tilted and media carefully removed. 200 μL of CM containing 100 ng/mL LPS is then added to the wells and the cells incubated an additional 3 hrs. The media is again removed and replaced with Opti-Mem medium containing pre-determined dilutions of test compounds in replicate wells. After a 30 min pre-incubation with test compound, 10 μM nigericin (final concentration) in Opti-Mem medium with the corresponding concentration of compound is added to the wells for an additional 1 hr. Positive control wells contain 10 μM nigericin in Opti-Mem in the absence of test compound, while negative control wells contain Opti-Mem only. […] Once supernatants are removed, the relative viability of adherent cells in the 96-well TC plate are determined using a CellTiter-Glo® luminescent cell viability assay (Promega).
Take `CCCOc1cc(C(=O)N(C)Cc2cnc(CO)c3cn[nH]c23)ccc1-c1cccc(F)c1` [Compound 147]: the negative logarithm of the IC50 (pIC50) (usually the IC50 on a negative log10 scale, so that one unit is a factor of ten) was > 6.00.
Under `CCOc1cc(C(=O)N(C)Cc2c(F)c(O)cc3cn[nH]c23)ccc1-c1cccc(F)c1` [Compound 148] stands > 6.00; under `CCOc1cc(C(=O)N(C)Cc2cnc(C(C)O)c3cn[nH]c23)ccc1-c1nccs1` (stereo not shown) [Compound 149], > 5.00; under `CCOc1cc(C(=O)NCc2cnc(CO)c3cn[nH]c23)ccc1-c1cccc(F)c1` [Compound 150], > 6.00.
Turning to `CN(Cc1cnc(CO)c2cn[nH]c12)C(=O)c1ccc(-c2cccc(F)c2)c(OC2COC2)c1` [Compound 151], the pIC50 is > 5.00.
For `CN(Cc1cnc(CO)c2cn[nH]c12)C(=O)c1ccc(-c2cc(F)cc(Cl)c2)c(OC2COC2)c1` [Compound 152], the pIC50 was > 6.00.
Under `CCOc1cc(C(=O)N(C)Cc2cnc(C)c3cn[nH]c23)ccc1-c1cc(C#N)cs1` [Compound 153] stands > 5.00.
Consider `CCOc1cc(C(=O)N(C)Cc2cnc(C(C)O)c3cn[nH]c23)cc(F)c1-c1cccs1` (stereo not shown) [Compound 154], for which the pIC50 was > 6.00.
Under `CN(Cc1cnc(CO)c2cn[nH]c12)C(=O)c1ccc(-c2cc(F)cc(F)c2)c(OC2COC2)c1` [Compound 155] stands > 6.00; under `CCOc1cc(C(=O)N(C)Cc2cnc(C(C)O)c3cn[nH]c23)cc(Cl)c1-c1cccc(F)c1` (stereo not shown) [Compound 156], > 4.30.
Take `CCOc1cc(C(=O)N(C)Cc2cnc(CO)c3cn[nH]c23)ccc1-c1nc(Cl)cs1` [Compound 157]: the pIC50 is > 6.00.
Under `CCOc1cc(C(=O)N(C)Cc2cnc(C(C)O)c3cn[nH]c23)ccc1-c1nc(Cl)cs1` (stereo not shown) [Compound 158] stands > 6.00; under `CCOc1cc(C(=O)N(C)[C@H](C)c2cnc(CO)c3cn[nH]c23)ccc1-c1cccc(F)c1` [Compound 159], > 6.00.
Turning to `CCOc1cc(C(=O)N(C)[C@@H](C)c2cnc(CO)c3cn[nH]c23)ccc1-c1cccc(F)c1` [Compound 160], the pIC50 was > 6.00.
In the case of `CN(Cc1cnc(CO)c2cn[nH]c12)C(=O)c1cc(Cl)c(-c2cccc(Cl)c2)c(OC2CC2)c1` [Compound 161], the pIC50 was > 6.00.
In the case of `CN(Cc1cnc(CO)c2cn[nH]c12)C(=O)c1cc(Cl)c(-c2cccc(F)c2)c(OC2CC2)c1` [Compound 162] it was > 6.00; in that of `CCOc1cc(C(=O)N(C)Cc2cnc(C(C)O)c3cn[nH]c23)ccc1-c1ccc(Cl)s1` (stereo not shown) [Compound 163], > 6.00.
In the case of `CCOc1cc(C(=O)N(C)Cc2cnc(CO)c3cn[nH]c23)ccc1-c1ccc(Cl)s1` [Compound 164], the pIC50 is > 6.00.
`CCOc1cc(C(=O)N(C)Cc2cnc(C(C)O)c3cn[nH]c23)cc(Cl)c1-c1cccc(Cl)c1` (stereo not shown) [Compound 166]: the pIC50 is > 6.00.
Under `CCOc1cc(C(=O)N(C)Cc2c(C)c(OC)cc3cn[nH]c23)ccc1-c1cccc(F)c1` [Compound 167] stands > 6.00; under `CC(O)c1ncc(CN(C)C(=O)c2ccc(-c3ccc(Cl)s3)c(OC3CC3)c2)c2[nH]ncc12` (stereo not shown) [Compound 168], > 6.00.
In the case of `CCOc1cc(C(=O)N(C)Cc2cnc(C)c3cn[nH]c23)ccc1-c1cccs1` [Compound 170] it was > 6.00; in that of `CCOc1cc(C(=O)N(C)Cc2cnc(C(O)C(F)(F)F)c3cn[nH]c23)ccc1-c1cccc(F)c1` (stereo not shown) [Compound 171], > 6.00; in that of `CCOc1cc(C(=O)N(CC)Cc2cnc(C(C)O)c3cn[nH]c23)cc(F)c1-c1cccc(Cl)c1` (stereo not shown) [Compound 172], > 6.00.
In the case of `CCOc1cc(C(=O)N(C)Cc2c(C)nc(CF)c3cn[nH]c23)ccc1-c1cccc(F)c1` [Compound 173], the pIC50 is > 6.00.
For `CCOc1cc(C(=O)N(CC)Cc2cnc(C(C)O)c3cn[nH]c23)cc(F)c1-c1cccc(F)c1` (stereo not shown) [Compound 174], the pIC50 is > 6.00.
Consider `CCOc1cc(C(=O)N(C)Cc2cnc(CO)c3cn[nH]c23)cc(Cl)c1-c1cccc(F)c1` [Compound 175], for which the pIC50 is > 5.00.
`CCOc1cc(C(=O)N(CC)Cc2cnc(C(C)O)c3cn[nH]c23)ccc1-c1cccc(Cl)c1` (stereo not shown) [Compound 176]: the pIC50 is > 6.00.
As for `CCOc1cc(C(=O)N(CC)Cc2cnc(CO)c3cn[nH]c23)ccc1-c1cccc(Cl)c1` [Compound 177], the pIC50 is > 6.00.
Consider `CCOc1cc(C(=O)N(C)Cc2cc(O)cc3cn[nH]c23)cc(F)c1-c1cccc(Cl)c1` [Compound 178], for which the pIC50 was > 6.00.
In the case of `CCN(Cc1cnc(C(C)O)c2cn[nH]c12)C(=O)c1ccc(-c2cccc(F)c2)c(OC2CC2)c1` (stereo not shown) [Compound 179] it was > 6.00; in that of `CCN(Cc1cnc(CO)c2cn[nH]c12)C(=O)c1cc(F)c(-c2cccc(F)c2)c(OC2CC2)c1` [Compound 180], > 6.00.
`CN(Cc1cnc(CF)c2cn[nH]c12)C(=O)c1cc(F)c(-c2cc(F)cs2)c(OC2CC2)c1` [Compound 181]: the negative-log IC50 (pIC50) was > 6.00.
Consider `CCN(Cc1cnc(CO)c2cn[nH]c12)C(=O)c1ccc(-c2cccc(Cl)c2)c(OC2CC2)c1` [Compound 182], for which the pIC50 is > 6.00.
